A value given as a limit tells only on which side of the number the result lay.

One assay concerns H460 cells. As to the kind of experiment: Proliferation assay in H460 cells (2 hr exposure, AlamarBlue). The format is cell-based, human. The note with it: 2 hrs exposure, wash, 70 hrs growth, read-out: IC 50 in proliferation assay in H460 cells. The method, then:
In vitro proliferation data on the H460 […] human tumor cell line is reported above in the compound table.
Specifically, exponentially growing cells were seeded at a density of 4×10^3 cells per well in a 96 well plate and incubated at 37° C. in 5% CO2, 95% air and 100% relative humidity for 24 hours prior to addition of test compounds. Compounds were solubilized in 100% DMSO at 200 times the desired final test concentration. At the time of drug addition, compounds were further diluted to 4 times the desired final concentration with complete medium. Aliquots of 50 μl of compound at specified concentrations were added to microtiter wells already containing 150 μl of medium, resulting in the final drug concentration reported. After drug addition, the plates were incubated for an additional 2 hours at 37° C., 5% CO2, 95% air, and 100% relative humidity, then the drug was washed off and fresh medium was added and the plates were incubated for addition 70 hrs at 37° C., 5% CO2, 95% air and 100% relative humidity. At the end of this incubation, the viable cells were quantified using the AlamarBlue assay. The drug concentration resulting in growth inhibition of 50% (IC50) was calculated using Prism software (Irvine, Calif.), and the results were listed in the table.
For orientation: The colour change of resazurin is a common sign of viable cells or microbes.
For `CC(OP(=O)(N1CC1)N1CC1)c1ccc([N+](=O)[O-])c(Oc2cccc([N+](=O)[O-])c2)c1` (stereo not shown) [Compound 2922], the IC50 was 3 nM.

Staying with this assay, now noted: Homo sapiens, NCI-H460, 2 hrs exposure, wash, 70 hrs growth, read-out: IC 50 in proliferation assay in H460 cells.
As to `CC(OP(=O)(N1CC1)N1CC1)c1cc(Oc2ccccc2)c([N+](=O)[O-])cc1F` (stereo not shown) [Compound 2846], the IC50 is 60 nM. Consider `CCOC(=O)c1ccc(Oc2cc(C(C)OP(=O)(N3CC3)N3CC3)ccc2[N+](=O)[O-])cc1` (stereo not shown) [Compound 2853], for which the IC50 is under 5 nM.

`CCOC(=O)c1cccc(Oc2cc(C(C)OP(=O)(N3CC3)N3CC3)ccc2[N+](=O)[O-])c1` (stereo not shown) [Compound 2854]: the IC50 was under 5 nM. Same read-out and setting: the result for `CC(OP(=O)(N1CC1)N1CC1)c1ccc([N+](=O)[O-])c(Oc2cccc(N(C)C)c2)c1` (stereo not shown) [Compound 2855] reads 30 nM; that for `CC(OP(=O)(N1CC1)N1CC1)c1ccc([N+](=O)[O-])c(Oc2ccc(Cl)cc2)c1` (stereo not shown) [Compound 2860], 10 nM; that for `CC(OP(=O)(N1CC1)N1CC1)c1ccc([N+](=O)[O-])c(Oc2ccc(F)cc2)c1` (stereo not shown) [Compound 2861], 20 nM. Still for that read-out and setting: the result for `CC(OP(=O)(N1CC1)N1CC1)c1ccc([N+](=O)[O-])c(Oc2ccccc2Cl)c1` (stereo not shown) [Compound 2862] reads 40 nM.

For the compound `CC(OP(=O)(N1CC1)N1CC1)c1ccc([N+](=O)[O-])c(Oc2ccc(F)cc2F)c1` (stereo not shown) [Compound 2863], the IC50 came out at 20 nM. The same measure, in the same setting: the result for `CC(OP(=O)(N1CC1)N1CC1)c1ccc([N+](=O)[O-])c(Oc2ccc(Cl)cc2Cl)c1` (stereo not shown) [Compound 2864] reads 20 nM; that for `CC(OP(=O)(N1CC1)N1CC1)c1ccc([N+](=O)[O-])c(Oc2ccccc2F)c1` (stereo not shown) [Compound 2865], 30 nM. Same read-out and setting: with `CC(OP(=O)(N1CC1)N1CC1)c1ccc([N+](=O)[O-])c(Oc2ccc3c(c2)OCO3)c1` (stereo not shown) [Compound 2866] the figure was 20 nM; with `CC(OP(=O)(N1CC1)N1CC1)c1ccc([N+](=O)[O-])c(Oc2cccc(C(F)(F)F)c2)c1` (stereo not shown) [Compound 2871], 30 nM; with `CC(OP(=O)(N1CC1)N1CC1)c1ccc([N+](=O)[O-])c(Oc2ccc(C#N)cc2)c1` (stereo not shown) [Compound 2872], 30 nM. Consider `CC(OP(=O)(N1CC1)N1CC1)c1ccc([N+](=O)[O-])c(Oc2ccccn2)c1` (stereo not shown) [Compound 2874], for which the IC50 is 500 nM. Take `O=[N+]([O-])c1ccc(COP(=O)(N2CC2)N2CC2)cc1Oc1ccccn1` [Compound 2875]: the IC50 was found to be 3200 nM. The same measure, in the same setting: the result for `CCOC(=O)c1ccc(Oc2cc(COP(=O)(N3CC3)N3CC3)ccc2[N+](=O)[O-])cc1` [Compound 2876] reads 3 nM. Regarding `O=[N+]([O-])c1ccc(COP(=O)(N2CC2)N2CC2)cc1Oc1cccnc1` [Compound 2877], the IC50 worked out at 20 nM. Same read-out and setting: with `CC(OP(=O)(N1CC1)N1CC1)c1ccc([N+](=O)[O-])c(Oc2nc3ccccc3s2)c1` (stereo not shown) [Compound 2878] the figure was 4400 nM; with `CC(OP(=O)(N1CC1)N1CC1)c1ccc([N+](=O)[O-])c(Oc2ccc(S(N)(=O)=O)cc2)c1` (stereo not shown) [Compound 2880], 100 nM. Same read-out and setting: with `CC(OP(=O)(N1CC1)N1CC1)c1ccc([N+](=O)[O-])c(Oc2ccc(S(=O)(=O)N(C)C)cc2)c1` (stereo not shown) [Compound 2881] the figure was 30 nM. For `CNC(=O)c1cccc(Oc2cc(C(C)OP(=O)(N3CC3)N3CC3)ccc2[N+](=O)[O-])c1` (stereo not shown) [Compound 2884], the IC50 turned out to be 10 nM.

Consider `CC(OP(=O)(N1CC1)N1CC1)c1ccc([N+](=O)[O-])c(Oc2ccccc2C(=O)N(C)C)c1` (stereo not shown) [Compound 2885], for which the IC50 amounted to 3700 nM. The same measure, in the same setting: with `NS(=O)(=O)c1ccc(Oc2cc(COP(=O)(N3CC3)N3CC3)ccc2[N+](=O)[O-])cc1` [Compound 2887] the figure was 200 nM.

As to `Cc1ccc(Oc2cc(C(C)OP(=O)(N3CC3)N3CC3)ccc2[N+](=O)[O-])cn1` (stereo not shown) [Compound 2891], the IC50 was 30 nM.

As for `O=[N+]([O-])c1ccc(COP(=O)(N2CC2)N2CC2)cc1Oc1ccc(F)nc1` [Compound 2892], the IC50 is 2 nM. Still for that read-out and setting: with `CC(OP(=O)(N1CC1)N1CC1)c1ccc([N+](=O)[O-])c(Oc2ccc(F)nc2)c1` (stereo not shown) [Compound 2893] the figure was 20 nM; with `COc1ccc(Oc2cc(COP(=O)(N3CC3)N3CC3)ccc2[N+](=O)[O-])cc1` [Compound 2895], 4 nM; with `Nc1ccc(Oc2cc(COP(=O)(N3CC3)N3CC3)ccc2[N+](=O)[O-])cc1` [Compound 2896], 100 nM. Take `CC(OP(=O)(N1CC1)N1CC1)c1ccc([N+](=O)[O-])c(Oc2ccc(-c3nccs3)cc2)c1` (stereo not shown) [Compound 2898]: the IC50 was 10 nM.

As to `O=[N+]([O-])c1ccc(COP(=O)(N2CC2)N2CC2)cc1Oc1ccc(-c2nccs2)cc1` [Compound 2899], the IC50 was determined as 4 nM. On the same count and under the same terms, the result for `CC(OP(=O)(N1CC1)N1CC1)c1ccc([N+](=O)[O-])c(Oc2ccc3ncsc3c2)c1` (stereo not shown) [Compound 2900] reads 40 nM; that for `CNS(=O)(=O)c1ccc(Oc2cc(C(C)OP(=O)(N3CC3)N3CC3)ccc2[N+](=O)[O-])cc1` (stereo not shown) [Compound 2902], 90 nM; that for `CNS(=O)(=O)c1ccc(Oc2cc(COP(=O)(N3CC3)N3CC3)ccc2[N+](=O)[O-])cc1` [Compound 2903], 30 nM. For `CC(OP(=O)(N1CC1)N1CC1)c1ccc([N+](=O)[O-])c(Oc2ccc(-c3ncco3)cc2)c1` (stereo not shown) [Compound 2904], the IC50 is 10 nM. Same read-out and setting: with `CC(OP(=O)(N1CC1)N1CC1)c1ccc(Oc2ccccc2)c([N+](=O)[O-])c1` (stereo not shown) [Compound 2906, reference compound] the figure was 4000 nM; with `CC(OP(=O)(N1CC1)N1CC1)c1ccc([N+](=O)[O-])c(Oc2ccc(C(=O)N(C)C)cc2)c1` (stereo not shown) [Compound 2908], 7 nM. Same read-out and setting: with `CNC(=O)c1ccc(Oc2cc(C(C)OP(=O)(N3CC3)N3CC3)ccc2[N+](=O)[O-])cc1` (stereo not shown) [Compound 2909] the figure was 10 nM. Turning to `CNC(=O)c1ccccc1Oc1cc(C(C)OP(=O)(N2CC2)N2CC2)ccc1[N+](=O)[O-]` (stereo not shown) [Compound 2910], the IC50 was 3500 nM. Same read-out and setting: with `CC(OP(=O)(N1CC1)N1CC1)c1ccc([N+](=O)[O-])c(Oc2ccc(NS(C)(=O)=O)cc2)c1` (stereo not shown) [Compound 2912] the figure was 40 nM; with `CC(OP(=O)(N1CC1)N1CC1)c1ccc([N+](=O)[O-])c(Oc2ccc(NS(=O)(=O)C(F)(F)F)cc2)c1` (stereo not shown) [Compound 2913], 70 nM; with `CC(OP(=O)(N1CC1)N1CC1)c1ccc([N+](=O)[O-])c(Oc2ccc3ocnc3c2)c1` (stereo not shown) [Compound 2914], 30 nM.

For the compound `O=[N+]([O-])c1ccc(COP(=O)(N2CC2)N2CC2)cc1Oc1ccc2ocnc2c1` [Compound 2915], the IC50 amounted to 90 nM.

Regarding `CC(OP(=O)(N1CC1)N1CC1)c1ccc([N+](=O)[O-])c(Oc2ccc(S(=O)(=O)Nc3ccc(F)cc3)cc2)c1` (stereo not shown) [Compound 2916], the IC50 stood at 120 nM. On to `CC(OP(=O)(N1CC1)N1CC1)c1ccc([N+](=O)[O-])c(Oc2ccc3cnn(C)c3c2)c1` (stereo not shown) [Compound 2917], for which the IC50 is 20 nM.

As for `Cn1ncc2ccc(Oc3cc(COP(=O)(N4CC4)N4CC4)ccc3[N+](=O)[O-])cc21` [Compound 2918], the IC50 turned out to be 3 nM. Same read-out and setting: with `CC(OP(=O)(N1CC1)N1CC1)c1ccc([N+](=O)[O-])c(Oc2ccc3c(cnn3C)c2)c1` (stereo not shown) [Compound 2919] the figure was 4 nM; with `CC(OP(=O)(N1CC1)N1CC1)c1ccc([N+](=O)[O-])c(Oc2ccc3c(c2)ncn3C)c1` (stereo not shown) [Compound 2920], 20 nM; with `Cn1cnc2cc(Oc3cc(COP(=O)(N4CC4)N4CC4)ccc3[N+](=O)[O-])ccc21` [Compound 2921], 7 nM. As to `CC(OP(=O)(N1CC1)N1CC1)c1ccc([N+](=O)[O-])c(Oc2ccc(C(N)=O)cc2)c1` (stereo not shown) [Compound 2923], the IC50 worked out at 20 nM. Same read-out and setting: with `CC(OP(=O)(N1CC1)N1CC1)c1ccc([N+](=O)[O-])c(Oc2cccc(C(N)=O)c2)c1` (stereo not shown) [Compound 2924] the figure was 100 nM; with `CC(OP(=O)(N1CC1)N1CC1)c1ccc([N+](=O)[O-])c(Oc2cncnc2)c1` (stereo not shown) [Compound 2925], 40 nM; with `N#Cc1ccc(Oc2cc(COP(=O)(N3CC3)N3CC3)ccc2[N+](=O)[O-])cc1` [Compound 2927], 3 nM. On to `Cc1nc2cc(Oc3cc(C(C)OP(=O)(N4CC4)N4CC4)ccc3[N+](=O)[O-])ccc2s1` (stereo not shown) [Compound 2928], for which the IC50 was found to be 30 nM.

`Cc1nc2cc(Oc3cc(COP(=O)(N4CC4)N4CC4)ccc3[N+](=O)[O-])ccc2s1` [Compound 2929]: the IC50 turned out to be 30 nM. `Cc1nc2ccc(Oc3cc(C(C)OP(=O)(N4CC4)N4CC4)ccc3[N+](=O)[O-])cc2s1` (stereo not shown) [Compound 2930]: the IC50 is 2 nM. The same measure, in the same setting: the result for `CC(OP(=O)(N1CC1)N1CC1)c1ccc([N+](=O)[O-])c(Oc2c(F)cccc2F)c1` (stereo not shown) [Compound 2932] reads 20 nM; that for `CC(OP(=O)(N1CC1)N1CC1)c1ccc([N+](=O)[O-])c(Oc2cnc3cccnc3c2)c1` (stereo not shown) [Compound 2933], 100 nM; that for `O=[N+]([O-])c1ccc(Oc2cc(COP(=O)(N3CC3)N3CC3)ccc2[N+](=O)[O-])cc1` [Compound 2934], 3 nM. The same measure, in the same setting: with `CC(OP(=O)(N1CC1)N1CC1)c1ccc([N+](=O)[O-])c(Oc2ccc([N+](=O)[O-])cc2)c1` (stereo not shown) [Compound 2935] the figure was 20 nM; with `CNC(=O)c1cccc(Oc2cc(COP(=O)(N3CC3)N3CC3)ccc2[N+](=O)[O-])c1` [Compound 2937], 2 nM.

(Values after patent US10766914B2, “DNA alkylating agents” (OBI PHARMA, INC., priority 2015, dated 2020).)
